Data as given in US4382030A, “2-Acylaminomethyl-1,4-benzodiazepine derivatives and their salts, pharmaceutical compositions thereof and process for their preparation” (Kali-Chemie Pharma GmbH, priority 1979, dated 1983).

Legend:
Format in all cases: in vivo
[1] = test system: male mice; assay: Determination of the Minimal Toxic Dose (oral, mice); settings: mouse, p.o.; observed 3 h, symptoms and deaths over 24 h
Protocol: 1. Determination of the Minimal Toxic Dose.
Maximum doses of 300 mg/kg of the test compound are administered orally to three male mice having a weight of 20-25 g and toxicity symptoms are carefully observed for a period of three hours. Furthermore, over a period of 24 hours from the administration all symptoms and deaths are registered. Side-symptoms are also observed and registered. Depending on their water solubility, the test compounds are administered either in form of aqueous solutions or in form of suspensions without the use of solvents. In order to maintain a stable suspension of the test compound, one drop of Tween-80 can be added and the mixture can be mechanically homogenized. In the case of compounds where deaths or toxic symptoms have been observed, additional mice are treated with decreasing doses until a dose is reached at which no toxic symptoms occur. The lowest dose which causes toxic symptoms is considered the minimal toxic dose.

[2] = test system: mice (tail flick, heat beam pain reaction); assay: Tail flick Test in Mice; settings: sc, 0.5 h; mouse, s.c.; 30 minutes after administration; >75% increase of reaction time in 50% of animals
Protocol: (§1) This analgesic activity has been evaluated in two pharmacological standard methods, the tail flick test in mice and the arthritis pain test in rats.
3. Tail flick Test in Mice.
This test is carried out according to the method described by D'Amour and Smith (1941), yet fed male and female mice having a body weight of 16 to 25 g are used instead of rats. Thirty minutes prior to treatment with the test compound, each mouse is placed separately in a cylindrical container in such a manner that it cannot turn itself or move forward. Its tail is positioned in a narrow groove projecting out of the container. A certain point of the tail of each animal (about 35 mm beyond the root of the tail) is subjected to the heat beam of a lamp of known strength and temperature which is positioned directly under the tail. The number of seconds which pass before the mouse moves its tail out of the light beam is determined twice, once 30 minutes and once 15 minutes prior to subcutaneous administration of the test compound (10 mg/kg). Mice which show a reaction time differing more than 25% are eliminated from the test. The reaction time is again determined 15 minutes and 30 minutes after the treatment and an increase of the reaction period of more than 75% of the average values prior to treatment in the same animal is considered as showing an analgesic effect. The ED50 (95% reliability) of each test compound 30 minutes after administration is evaluated according to the method of Litchfield and Wilcoxon (1949). The dose which increases the reaction time as compared to the reaction time prior to treatment for more than 75% in 50% of the animals is considered as ED50.

[3] = test system: rats (secondary arthritis pain, mycobacterium smegmae); assay: Arthritis Pain Test in Rats; settings: po, rat, p.o., 3 hours after administration, protection in 50% of treated animals
Protocol: as §1
2. Arthritis Pain Test in Rats.
Male rats having a weight of from 160 to 180 g are anesthetized by small i.p. injection of 20 mg/kg of sodium pentobarbital and 0.1 ml of a suspension of mycobacterium smegmae (SI 043) in liquid paraffin (0.6 mg mycobacterium/0.1 ml of oil) are injected intracutaneously into the left rear paw. Fourteen days later when a marked secondary arthritis has developed in particular in the right rear paw, the effect of the test compound is evaluated. A control-reading is taken 30 minutes prior to administration of the test compound by bending the foot joint of the right rear paw three times and counting the number of squeakings. […] Three hours after oral administration of the test compound the bending of the joint is repeated. Animals which squeak only once or not at all are considered to be protected against pain. Between about 9 and 20 rats are used per dose and the ED50 (95% reliability) is determined according to the method of Litchfield and Wilcoxon (1949). The dose which provides protection in 50% of the treated animals is taken as ED50.

| SMILES | MDL (minimal toxic dose) [1] | ED50 [2] | ED50 [3] |
| --- | --- | --- | --- |
| CN1c2ccccc2C(c2ccccc2F)=NCC1CNC(=O)c1ccoc1 (stereo not drawn) [Compound 19, 1-methyl-2-[(furane-3-carbonyl)-aminomethyl]-5-(2-fluorophenyl)-1H-2,3-dihydro-1,4-benzodiazepine] | > 300 mg/kg | 0.56 mg/kg | 13 mg/kg |
| COc1cccc(C2=NCC(CNC(=O)c3ccsc3)N(C)c3ccccc32)c1 (stereo not drawn) [Compound 16, 1-methyl-2-[(thiophene-3-carbonyl)-aminomethyl]-5-(3-methoxyphenyl)-1H-2,3-dihydro-1,4-benzodiazepine] | > 300 mg/kg | 0.5 mg/kg | 32 mg/kg |
| Cc1ccc(C(=O)NCC2CN=C(c3ccccc3)c3ccccc3N2C)s1 (stereo not drawn) [Compound 12, 1-methyl-2-[(5-methylthiophene-2-carbonyl)-aminomethyl]-5-phenyl-1H-2,3-dihydro-1,4-benzodiazepine] | > 300 mg/kg | 2.8 mg/kg | 10 mg/kg |
| CN1c2ccccc2C(c2ccccc2F)=NCC1CNC(=O)c1ccco1 (stereo not drawn) [Compound 18, 1-methyl-2-[(furane-2-carbonyl)-aminomethyl]-5-(2-fluorophenyl)-1H-2,3-dihydro-1,4-benzodiazepine] | > 300 mg/kg | 4.1 mg/kg | 18 mg/kg |
| CN1c2ccccc2C(c2ccccc2)=NCC1CNC(=O)c1cccs1 (stereo not drawn) [Compound 1, 1-methyl-2-[(thiophene-2-carbonyl)-aminomethyl]-5-phenyl-1H-2,3-dihydro-1,4-benzodiazepine] | > 300 mg/kg | 2.8 mg/kg | 13 mg/kg |
| Cc1ccc2c(c1)C(c1ccccc1)=NCC(CNC(=O)c1ccsc1)N2C (stereo not drawn) [Compound 10, 1,7-dimethyl-2-[(thiophene-3-carbonyl)-aminomethyl]-5-phenyl-1H-2,3-dihydro-1,4-benzodiazepine] | > 300 mg/kg | 3.2 mg/kg | 32 mg/kg |
| COc1ccc2c(c1)N(C)C(CNC(=O)c1ccsc1)CN=C2c1ccccc1 (stereo not drawn) [Compound 5, 8-methoxy-1-methyl-2-[(thiophene-3-carbonyl)-aminomethyl]-5-phenyl-1H-2,3-dihydro-1,4-benzodiazepine] | > 200 mg/kg | 2.4 mg/kg | 15 mg/kg |
| Cc1ccc2c(c1)C(c1ccccc1)=NCC(CNC(=O)c1ccoc1)N2C (stereo not drawn) [Compound 11, 1,7-dimethyl-2-[(furane-3-carbonyl)-aminomethyl]-5-phenyl-1H-2,3-dihydro-1,4-benzodiazepine] | > 300 mg/kg | 1.2 mg/kg | 30 mg/kg |
| CCN1c2ccccc2C(c2ccccc2)=NCC1CNC(=O)c1ccoc1 (stereo not drawn) [Compound 17, 1-ethyl-2-[(furane-3-carbonyl)-aminomethyl]-5-phenyl-1H-2,3-dihydro-1,4-benzodiazepine] | > 200 mg/kg | 2.6 mg/kg | 22 mg/kg |
| CN1c2ccccc2C(c2ccccc2)=NCC1CNC(=O)c1ccsc1 (stereo not drawn) [Compound 7, 1-methyl-2-[(thiophene-3-carbonyl)-aminomethyl]-5-phenyl-1H-2,3-dihydro-1,4-benzodiazepine] | > 200 mg/kg | 0.22 mg/kg | 19 mg/kg |
| COc1ccc2c(c1)N(C)C(CNC(=O)c1ccc(C)s1)CN=C2c1ccccc1 (stereo not drawn) [Compound 9, 8-methoxy-1-methyl-2-[(5-methylthiophene-2-carbonyl)-aminomethyl]-5-phenyl-1H-2,3-dihydro-1,4-benzodiazepine] | > 200 mg/kg | 5.6 mg/kg | 14 mg/kg |
| CCOc1ccc2c(c1)N(C)C(CNC(=O)c1ccoc1)CN=C2c1ccccc1 (stereo not drawn) [Compound 13, 8-ethoxy-1-methyl-2-[(furane-3-carbonyl)-aminomethyl]-5-phenyl-1H-2,3-dihydro-1,4-benzodiazepine] | > 200 mg/kg | 6 mg/kg | 15 mg/kg |
| COc1ccc2c(c1)N(C)C(CNC(=O)c1ccoc1)CN=C2c1ccccc1 (stereo not drawn) [Compound 6, 8-methoxy-1-methyl-2-[(furane-3-carbonyl)-aminomethyl]-5-phenyl-1H-2,3-dihydro-1,4-benzodiazepine] | > 50 mg/kg | 2.8 mg/kg | 9 mg/kg |
| Cc1cc2c(cc1C)N(C)C(CNC(=O)c1ccoc1)CN=C2c1ccccc1 (stereo not drawn) [Compound 8, 1,7,8-trimethyl-2-[(furane-3-carbonyl)-aminomethyl]-5-phenyl-1H-2,3-dihydro-1,4-benzodiazepine] | > 200 mg/kg | 8 mg/kg | 14 mg/kg |
| COc1cccc(C2=NCC(CNC(=O)c3ccco3)N(C)c3ccccc32)c1 (stereo not drawn) [Compound 14, 1-methyl-2-[(furane-2-carbonyl)-aminomethyl]-5-(3-methoxyphenyl)-1H-2,3-dihydro-1,4-benzodiazepine] | > 300 mg/kg | 1.6 mg/kg | 32 mg/kg |
| COc1ccc2c(c1)N(C)C(CNC(=O)c1ccco1)CN=C2c1ccccc1 (stereo not drawn) [Compound 4, 8-methoxy-1-methyl-2-[(furane-2-carbonyl)-aminomethyl]-5-phenyl-1H-2,3-dihydro-1,4-benzodiazepine] | > 200 mg/kg | 7 mg/kg | 21 mg/kg |
| CN1c2ccccc2C(c2ccccc2)=NCC1CNC(=O)c1ccco1 (stereo not drawn) [Compound 2, 1-methyl-2-[(furane-2-carbonyl)-aminomethyl]-5-phenyl-1H-2,3-dihydro-1,4-benzodiazepine] | > 300 mg/kg | 2.8 mg/kg | 32 mg/kg |
| CN1c2ccccc2C(c2ccccc2F)=NCC1CNC(=O)c1ccsc1 (stereo not drawn) [Compound 20, 1-methyl-2-[(thiophene-3-carbonyl)-aminomethyl]-5-(2-fluorophenyl)-1H-2,3-dihydro-1,4-benzodiazepine] | > 300 mg/kg | 1.1 mg/kg | 18 mg/kg |
| CN1c2ccccc2C(c2ccccc2F)=NCC1CNC(=O)c1cccs1 (stereo not drawn) [Compound 21, 1-methyl-2-[(thiophene-2-carbonyl)-aminomethyl]-5-(2-fluorophenyl)-1H-2,3-dihydro-1,4-benzodiazepine] | > 300 mg/kg | 6.2 mg/kg | 13 mg/kg |
| COc1ccc2c(c1)C(c1ccccc1)=NCC(CNC(=O)c1ccoc1)N2C (stereo not drawn) [Compound 15, 7-methoxy-1-methyl-2-[(furane-3-carbonyl)-aminomethyl]-5-phenyl-1H-2,3-dihydro-1,4-benzodiazepine] | > 300 mg/kg | 8.5 mg/kg | 32 mg/kg |
| COc1ccc2c(c1)N(C)C(CNC(=O)c1cccs1)CN=C2c1ccccc1 (stereo not drawn) [Compound 3, 8-methoxy-1-methyl-2-[(thiophene-2-carbonyl)-aminomethyl]-5-phenyl-1H-2,3-dihydro-1,4-benzodiazepine] | > 200 mg/kg | 5.3 mg/kg | 20 mg/kg |
